One assay addresses T1, Human Calpain 9/NS1 (Homo sapiens, UniProt O14815).
T1 sequence (O14815 1-690): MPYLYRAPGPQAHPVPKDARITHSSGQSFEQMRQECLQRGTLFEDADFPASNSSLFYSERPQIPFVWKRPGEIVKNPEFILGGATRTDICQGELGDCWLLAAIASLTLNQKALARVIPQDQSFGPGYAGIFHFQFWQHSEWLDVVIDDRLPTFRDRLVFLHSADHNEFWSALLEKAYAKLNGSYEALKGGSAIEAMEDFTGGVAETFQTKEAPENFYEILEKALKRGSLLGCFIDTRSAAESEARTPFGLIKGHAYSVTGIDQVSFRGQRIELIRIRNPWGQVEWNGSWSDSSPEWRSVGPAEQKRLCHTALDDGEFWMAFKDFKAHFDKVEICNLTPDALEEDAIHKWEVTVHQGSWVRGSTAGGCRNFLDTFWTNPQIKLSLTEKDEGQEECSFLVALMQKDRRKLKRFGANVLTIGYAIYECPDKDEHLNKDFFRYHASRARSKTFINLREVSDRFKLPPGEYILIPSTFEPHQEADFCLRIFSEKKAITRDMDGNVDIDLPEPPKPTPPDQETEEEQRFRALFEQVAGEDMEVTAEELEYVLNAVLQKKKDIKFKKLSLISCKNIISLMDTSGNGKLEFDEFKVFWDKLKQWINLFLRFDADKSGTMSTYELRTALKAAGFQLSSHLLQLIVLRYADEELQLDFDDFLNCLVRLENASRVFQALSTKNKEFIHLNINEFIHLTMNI
T1 sequence (P04632 1-268 partner): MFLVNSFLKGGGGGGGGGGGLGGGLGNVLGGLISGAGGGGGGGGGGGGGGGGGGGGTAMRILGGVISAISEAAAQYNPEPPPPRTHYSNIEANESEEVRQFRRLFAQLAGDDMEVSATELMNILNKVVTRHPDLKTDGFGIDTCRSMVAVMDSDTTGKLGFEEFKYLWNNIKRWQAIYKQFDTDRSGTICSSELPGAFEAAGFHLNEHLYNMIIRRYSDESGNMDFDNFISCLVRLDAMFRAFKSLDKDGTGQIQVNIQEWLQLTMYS
The assay can be described thus: Calpain inhibition continuous fluorescence (FRET) assay, Human Calpain 9/NS1. The settings on record: read-out: Human Calpain 9/NS1 IC50. It counts as biochemical. In a few lines:
(§1)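 Fluorescence increase from the cleaved 5-FAM/QXL 520 substrate, read at 490/520 nm, gave activity. Calcium was supplied with the substrate to activate the enzyme in situ after a 25C enzyme-inhibitor preincubation, and IC50s were fit from initial slopes.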

The next assay has as its target T2, Human Calpain 1/NS1 (Homo sapiens, UniProt P07384).
T2 sequence (P07384 1-714): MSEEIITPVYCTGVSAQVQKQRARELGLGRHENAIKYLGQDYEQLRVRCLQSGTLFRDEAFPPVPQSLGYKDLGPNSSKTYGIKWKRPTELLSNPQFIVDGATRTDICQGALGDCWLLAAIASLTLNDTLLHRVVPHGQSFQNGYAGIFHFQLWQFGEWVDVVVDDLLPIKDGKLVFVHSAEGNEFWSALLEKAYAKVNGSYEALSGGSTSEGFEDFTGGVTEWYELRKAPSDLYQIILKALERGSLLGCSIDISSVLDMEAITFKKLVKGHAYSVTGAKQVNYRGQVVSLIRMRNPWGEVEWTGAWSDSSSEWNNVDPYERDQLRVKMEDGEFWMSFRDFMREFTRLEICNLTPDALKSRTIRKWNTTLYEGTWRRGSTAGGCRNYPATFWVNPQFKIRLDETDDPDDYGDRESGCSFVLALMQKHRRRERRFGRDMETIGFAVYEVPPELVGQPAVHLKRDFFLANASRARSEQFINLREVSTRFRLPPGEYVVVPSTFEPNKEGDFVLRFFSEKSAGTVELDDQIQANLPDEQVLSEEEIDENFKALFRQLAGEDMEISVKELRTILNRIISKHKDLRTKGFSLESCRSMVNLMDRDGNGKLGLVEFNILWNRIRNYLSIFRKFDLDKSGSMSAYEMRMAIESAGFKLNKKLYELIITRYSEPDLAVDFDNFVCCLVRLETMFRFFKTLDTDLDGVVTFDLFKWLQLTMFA
T2 sequence (P04632 1-268 partner): T1 sequence (P04632 1-268 partner)
As to the kind of experiment: Calpain inhibition continuous fluorescence (FRET) assay, Human Calpain 1/NS1. It counts as biochemical. The settings on record: read-out: Human Calpain 1/NS1 IC50. The method, boiled down:
as §1

Assay [1] relates to Calpain activity in SH-SY5Y cells. The assay can be described thus: SH-SY5Y + AMC fluorescence assay (Suc-LLVY-AMC substrate). It counts as cell-based.
The test system of assay [2] is Calpain activity in SH-SY5Y cells (SBDP-150). As to the kind of experiment: SH-SY5Y Spectrin western blot assay (SBDP-150 breakdown product, A23187-induced). It counts as cell-based. The settings on record: read-out: SH-SY5Y Spectrin IC50. In general terms: A western blot detects proteins with antibodies after separation by electrophoresis.
The target of the next assay is T3, Human Calpain 2/NS1 (Homo sapiens, UniProt P17655).
T3 sequence (P17655 1-700): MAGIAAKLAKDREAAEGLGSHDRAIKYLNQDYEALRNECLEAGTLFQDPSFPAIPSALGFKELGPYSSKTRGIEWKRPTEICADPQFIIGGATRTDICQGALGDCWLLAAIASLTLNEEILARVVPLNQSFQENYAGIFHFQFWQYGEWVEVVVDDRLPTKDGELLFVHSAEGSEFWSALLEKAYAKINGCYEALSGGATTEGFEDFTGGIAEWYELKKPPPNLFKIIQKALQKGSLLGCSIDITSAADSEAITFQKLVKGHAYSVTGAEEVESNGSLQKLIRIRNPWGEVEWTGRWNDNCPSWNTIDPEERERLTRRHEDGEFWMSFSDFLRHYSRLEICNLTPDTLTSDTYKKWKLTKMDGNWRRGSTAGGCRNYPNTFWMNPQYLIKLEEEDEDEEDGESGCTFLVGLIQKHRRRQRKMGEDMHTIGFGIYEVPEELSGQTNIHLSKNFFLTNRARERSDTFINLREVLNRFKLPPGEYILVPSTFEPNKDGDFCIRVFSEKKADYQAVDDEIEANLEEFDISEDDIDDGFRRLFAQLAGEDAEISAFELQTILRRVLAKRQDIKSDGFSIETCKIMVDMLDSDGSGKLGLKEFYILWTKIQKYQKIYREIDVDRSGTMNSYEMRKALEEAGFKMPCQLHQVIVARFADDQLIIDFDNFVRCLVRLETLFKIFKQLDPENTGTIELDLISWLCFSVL
T3 sequence (P04632 1-268 partner): T1 sequence (P04632 1-268 partner)
As to the kind of experiment: Calpain inhibition continuous fluorescence (FRET) assay, Human Calpain 2/NS1. It counts as biochemical. The following applies: read-out: Human Calpain 2/NS1 IC50. In a few lines:
as §1

[3] abbreviates: Column E, read-out: SH-SY5Y + AMC IC50.
The mark [4] stands for this setting: Homo sapiens, Column D, SH-SY5Y cells, A23187-induced SBDP-150.
[5] abbreviates: Homo sapiens, SH-SY5Y cells, A23187-induced SBDP-150, western blot.

pIC50: −log10 of the molar value. Where two headings read alike, the source gives them in different places.

As for `Cc1nnn(-c2ccccc2)c1C(=O)N[C@@H](Cc1ccccc1)C(=O)C(N)=O` [Compound 55, (S)—N-(4-amino-3,4-dioxo-1-phenylbutan-2-yl)-4-methyl-1-phenyl-1H-1,2,3-triazole-5-carboxamide], the pIC50 on Human Calpain 9/NS1 (Column C) was greater than 5.52; at Human Calpain 1/NS1 (Column A), greater than 5.52; in assay [1] (setting [3]) it was less than 4.60; in assay [2] (setting [4]), greater than 5.00; at Human Calpain 2/NS1 (Column B), greater than 5.52.

For the molecule `Cn1cc(C(=O)N[C@@H](Cc2ccc(O)cc2)C(=O)C(N)=O)c(-c2ccccc2)n1` [Compound 421, (S)—N-(4-amino-1-(4-hydroxyphenyl)-3,4-dioxobutan-2-yl)-1-methyl-3-phenyl-1H-pyrazole-4-carboxamide], the pIC50 at Human Calpain 9/NS1 was greater than 5.52; at Human Calpain 1/NS1, greater than 5.52; in assay [1] (read-out: SH-SY5Y + AMC IC50), greater than 5.00; in assay [2] (setting [5]) it was 4.60 to 5.00; on Human Calpain 2/NS1, greater than 5.52.

For the molecule `Cn1cc(C(=O)NC(Cc2cc(Cl)cc(Cl)c2)C(=O)C(N)=O)c(-c2ccccc2)n1` (stereo not drawn) [Compound 418, N-(4-amino-1-(3,5-dichlorophenyl)-3,4-dioxobutan-2-yl)-1-methyl-3-phenyl-1H-pyrazole-4-carboxamide], the pIC50 is greater than 5.52 at Human Calpain 9/NS1; greater than 5.52 on Human Calpain 1/NS1; 4.60 to 5.00 in assay [1] (read-out: SH-SY5Y + AMC IC50); 4.60 to 5.00 in assay [2] (setting [5]); greater than 5.52 on Human Calpain 2/NS1.

As for `Cc1cc(C(=O)NC(Cc2ccccc2)C(=O)C(N)=O)n(-c2ncccn2)n1` (stereo not drawn) [Compound 351, N-(4-amino-3,4-dioxo-1-phenylbutan-2-yl)-3-methyl-1-(pyrimidin-2-yl)-1H-pyrazole-5-carb oxamide], the pIC50 on Human Calpain 9/NS1 was greater than 5.52; on Human Calpain 1/NS1, greater than 5.52; in assay [1] (read-out: SH-SY5Y + AMC IC50), greater than 5.00; in assay [2] (setting [5]) it was 4.60 to 5.00; on Human Calpain 2/NS1, greater than 5.52.

Consider `NC(=O)C(=O)C(Cc1ccccc1)NC(=O)c1nsnc1-c1cccnc1` (stereo not drawn) [Compound 377, N-(4-amino-3,4-dioxo-1-phenylbutan-2-yl)-4-(pyridin-3-yl)-1,2,5-thiadiazole-3-carboxamide], for which the pIC50 at Human Calpain 9/NS1 is greater than 5.52; at Human Calpain 1/NS1 it was greater than 5.52; in assay [1] (read-out: SH-SY5Y + AMC IC50), 4.60 to 5.00; in assay [2] (setting [5]), greater than 5.00; at Human Calpain 2/NS1 it was greater than 5.52.

Turning to `NC(=O)C(=O)C(Cc1ccccc1)NC(=O)c1cn(C(F)F)nc1-c1ccc2cccnc2c1` (stereo not drawn) [Compound 575, N-(4-amino-3,4-dioxo-1-phenylbutan-2-yl)-1-(difluoromethyl)-3-(quinolin-7-yl)-1H-pyrazole-4-carboxamide], the pIC50 at Human Calpain 9/NS1 is greater than 5.52; on Human Calpain 1/NS1, greater than 5.52; in assay [1] (read-out: SH-SY5Y + AMC IC50), less than 4.60; in assay [2] (setting [5]), greater than 5.00; on Human Calpain 2/NS1, greater than 5.52.

For `COc1cccc(-c2nn(C)cc2C(=O)NC(Cc2ccccc2)C(=O)C(N)=O)c1F` (stereo not drawn) [Compound 509, N-(4-amino-3,4-dioxo-1-phenylbutan-2-yl)-3-(2-fluoro-3-methoxyphenyl)-1-methyl-1H-pyrazole-4-carboxamide], the pIC50 on Human Calpain 9/NS1 is greater than 5.52; at Human Calpain 1/NS1 it was greater than 5.52; in assay [1] (read-out: SH-SY5Y + AMC IC50), 4.60 to 5.00; in assay [2] (setting [5]), 4.60 to 5.00; on Human Calpain 2/NS1, greater than 5.52.

As for `NC(=O)C(=O)[C@H](Cc1ccccc1)NC(=O)c1nsnc1-c1ccccc1` [Compound 376, (S)—N-(4-amino-3,4-dioxo-1-phenylbutan-2-yl)-4-phenyl-1,2,5-thiadiazole-3-carboxamide], the pIC50 on Human Calpain 9/NS1 was greater than 5.52; on Human Calpain 1/NS1, greater than 5.52; in assay [1] (read-out: SH-SY5Y + AMC IC50), greater than 5.00; in assay [2] (setting [5]), greater than 5.00; at Human Calpain 2/NS1, greater than 5.52.

Take “(S)—N-(4-amino-3,4-dioxo-1-phenylbutan-2-yl)-3-methyl-1-(5-methylpyridin-2-yl)-1H-pyrazole-5-carboxamide [Compound 121]”: the pIC50 on Human Calpain 9/NS1 (Column C) is greater than 5.52; at Human Calpain 1/NS1 (Column A) it was greater than 5.52; in assay [1] (setting [3]) it was 4.60 to 5.00; in assay [2] (Column D, SH-SY5Y cells, A23187-induced SBDP-150) it was greater than 5.00; on Human Calpain 2/NS1 (Column B), greater than 5.52.

Regarding `Cc1cc(C(=O)N[C@@H](Cc2ccccc2)C(=O)C(N)=O)n(-c2cccc(COCc3ccccc3)c2)n1` [Compound 230, (S)—N-(4-amino-3,4-dioxo-1-phenylbutan-2-yl)-1-(3-((benzyloxy)methyl)phenyl)-3-methyl-1H-pyrazole-5-carboxamide], the pIC50 on Human Calpain 9/NS1 (Column C) was greater than 5.52; at Human Calpain 1/NS1 (Column A), greater than 5.52; in assay [1] (setting [3]) it was greater than 5.00; in assay [2] (setting [4]), greater than 5.00; on Human Calpain 2/NS1 (Column B), greater than 5.52.

For `COCCOCCOc1ccc(-n2nc(C)cc2C(=O)NC(Cc2ccccc2)C(=O)C(N)=O)cc1` (stereo not drawn) [Compound 443, N-(4-amino-3,4-dioxo-1-phenylbutan-2-yl)-1-(4-(2-(2-methoxyethoxy)ethoxy)phenyl)-3-methyl-1H-pyrazole-5-carboxamide], the pIC50 on Human Calpain 9/NS1 is greater than 5.52; at Human Calpain 1/NS1 it was greater than 5.52; in assay [1] (read-out: SH-SY5Y + AMC IC50) it was 4.60 to 5.00; in assay [2] (setting [5]) it was greater than 5.00; at Human Calpain 2/NS1, greater than 5.52.

Take `CCOC(=O)NCc1cccc(-n2nc(C)cc2C(=O)N[C@@H](Cc2ccccc2)C(=O)C(N)=O)c1` [Compound 147, Ethyl (S)-(3-(5-((4-amino-3,4-dioxo-1-phenylbutan-2-yl)carbamoyl)-3-methyl-1H-pyrazol-1-yl)benzyl)carbamate]: the pIC50 on Human Calpain 9/NS1 (Column C) was greater than 5.52; at Human Calpain 1/NS1 (Column A), greater than 5.52; in assay [1] (read-out: SH-SY5Y + AMC IC50, Column E), 4.60 to 5.00; in assay [2] (Homo sapiens, SH-SY5Y) it was 4.60 to 5.00; on Human Calpain 2/NS1 (Column B), greater than 5.52.
